Results on 6 compounds are retold here after ChEMBL document CHEMBL1140772, “Discovery of indenopyrazoles as EGFR and VEGFR-2 tyrosine kinase inhibitors by in silico high-throughput screening” (Bioorg Med Chem Lett, 2008).

Active and inactive are the calls of the source. The calls are words filed in the database; no cut-off is given here.

Experiment [1] addresses Receptor tyrosine-protein kinase erbB-2 (Homo sapiens) (UniProt P04626). The experiment is described as follows: Inhibition of HER2 at 1 uM.
Experiment [2] has as its system A-431. The experiment is described as follows: Growth inhibition of human A431 cells overexpressing EGFR after 72 hrs by MTT assay. It is filed as functional. The following applies: A-431, 72 h.
For experiment [3], the system named is A-431. The experiment is described as follows: Inhibition of human CDK in A431 cells assessed as inhibition of phosphorylation of Rb at 1 uM after 12 hrs. The experiment is classed as cell-based.
In experiment [4] the target is Vascular endothelial growth factor receptor 2 (Homo sapiens, UniProt P35968). Kind of experiment: Inhibition of KDR.
Vascular endothelial growth factor receptor 2, sequence (P35968 whole entry): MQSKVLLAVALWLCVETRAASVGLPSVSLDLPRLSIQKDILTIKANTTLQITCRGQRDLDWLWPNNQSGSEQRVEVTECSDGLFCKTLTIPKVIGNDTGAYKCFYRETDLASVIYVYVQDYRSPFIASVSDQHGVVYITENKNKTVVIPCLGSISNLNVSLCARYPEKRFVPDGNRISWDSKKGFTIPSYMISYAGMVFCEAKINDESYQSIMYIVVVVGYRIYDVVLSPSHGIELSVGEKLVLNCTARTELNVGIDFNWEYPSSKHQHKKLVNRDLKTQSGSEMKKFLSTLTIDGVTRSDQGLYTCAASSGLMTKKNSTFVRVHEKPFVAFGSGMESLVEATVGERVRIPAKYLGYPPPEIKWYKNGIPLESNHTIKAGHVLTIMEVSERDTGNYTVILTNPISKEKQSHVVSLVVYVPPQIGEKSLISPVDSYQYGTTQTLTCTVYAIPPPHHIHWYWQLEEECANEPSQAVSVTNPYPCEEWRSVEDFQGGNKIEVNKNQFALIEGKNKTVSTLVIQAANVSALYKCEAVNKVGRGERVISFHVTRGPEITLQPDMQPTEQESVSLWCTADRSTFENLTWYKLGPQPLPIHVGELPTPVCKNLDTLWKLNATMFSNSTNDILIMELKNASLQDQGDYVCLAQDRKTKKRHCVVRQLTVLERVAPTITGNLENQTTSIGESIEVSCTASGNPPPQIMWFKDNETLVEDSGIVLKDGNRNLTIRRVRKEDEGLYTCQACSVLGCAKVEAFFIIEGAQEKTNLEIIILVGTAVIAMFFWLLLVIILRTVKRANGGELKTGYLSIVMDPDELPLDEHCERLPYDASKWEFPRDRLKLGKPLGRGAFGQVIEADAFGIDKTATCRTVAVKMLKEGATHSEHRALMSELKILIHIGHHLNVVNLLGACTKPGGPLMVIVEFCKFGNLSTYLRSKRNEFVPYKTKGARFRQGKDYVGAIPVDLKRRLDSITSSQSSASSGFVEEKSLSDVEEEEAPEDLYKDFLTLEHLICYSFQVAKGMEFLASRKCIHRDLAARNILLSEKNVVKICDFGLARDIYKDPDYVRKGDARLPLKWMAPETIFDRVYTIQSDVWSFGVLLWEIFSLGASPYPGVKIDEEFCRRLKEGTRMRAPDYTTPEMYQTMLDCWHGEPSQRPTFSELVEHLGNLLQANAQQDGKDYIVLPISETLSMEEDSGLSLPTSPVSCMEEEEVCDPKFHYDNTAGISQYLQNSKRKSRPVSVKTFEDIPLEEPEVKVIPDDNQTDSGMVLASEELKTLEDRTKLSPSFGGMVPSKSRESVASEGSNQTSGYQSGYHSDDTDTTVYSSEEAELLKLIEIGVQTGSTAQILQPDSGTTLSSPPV

By inhibition is commonly meant the change of the read-out against control, counted positive when it falls. A higher inhibition goes with a response far below the control. The term GI50 denotes the concentration that inhibits growth by half. The low end stands for greater sensitivity of the cells, the high end for lower sensitivity of the cells. As usually defined, the IC50 is the concentration that inhibits the measured activity by half. Read a high IC50 as weaker potency.

Receptor tyrosine-protein kinase erbB-2 (Homo sapiens), sequence (P04626 whole entry): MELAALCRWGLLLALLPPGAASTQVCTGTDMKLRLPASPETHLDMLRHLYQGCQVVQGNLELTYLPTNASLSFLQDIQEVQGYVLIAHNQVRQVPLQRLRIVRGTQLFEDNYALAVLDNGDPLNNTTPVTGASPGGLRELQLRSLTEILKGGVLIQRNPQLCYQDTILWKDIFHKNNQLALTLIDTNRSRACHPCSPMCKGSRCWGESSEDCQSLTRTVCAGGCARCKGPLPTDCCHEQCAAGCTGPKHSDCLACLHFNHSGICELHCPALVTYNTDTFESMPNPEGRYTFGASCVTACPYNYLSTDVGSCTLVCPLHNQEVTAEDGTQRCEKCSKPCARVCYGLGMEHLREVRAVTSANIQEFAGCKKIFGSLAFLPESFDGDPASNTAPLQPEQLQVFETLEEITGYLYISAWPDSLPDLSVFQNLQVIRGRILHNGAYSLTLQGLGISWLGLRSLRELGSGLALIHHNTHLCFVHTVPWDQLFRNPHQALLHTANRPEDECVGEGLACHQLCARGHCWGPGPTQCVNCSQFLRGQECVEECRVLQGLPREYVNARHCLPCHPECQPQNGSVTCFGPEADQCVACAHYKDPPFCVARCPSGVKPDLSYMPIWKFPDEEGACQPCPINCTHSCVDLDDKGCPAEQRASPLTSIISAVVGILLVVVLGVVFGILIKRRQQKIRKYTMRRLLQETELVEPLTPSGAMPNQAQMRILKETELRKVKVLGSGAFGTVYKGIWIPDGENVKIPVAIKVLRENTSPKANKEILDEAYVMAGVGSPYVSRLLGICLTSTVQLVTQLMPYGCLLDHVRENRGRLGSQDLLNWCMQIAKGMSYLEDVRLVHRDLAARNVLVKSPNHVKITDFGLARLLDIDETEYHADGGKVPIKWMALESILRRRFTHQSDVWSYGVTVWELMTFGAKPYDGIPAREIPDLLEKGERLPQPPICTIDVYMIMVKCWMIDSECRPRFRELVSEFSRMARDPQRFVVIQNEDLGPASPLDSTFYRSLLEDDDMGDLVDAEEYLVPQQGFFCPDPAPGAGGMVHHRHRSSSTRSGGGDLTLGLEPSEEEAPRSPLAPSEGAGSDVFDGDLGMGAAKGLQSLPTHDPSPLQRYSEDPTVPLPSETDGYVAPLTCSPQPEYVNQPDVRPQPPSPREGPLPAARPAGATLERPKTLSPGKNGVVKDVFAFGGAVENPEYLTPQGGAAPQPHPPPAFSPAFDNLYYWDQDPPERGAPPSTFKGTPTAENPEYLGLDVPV

In experiment [1], `COc1ccc(-c2[nH]nc3c2C(=O)c2c(NC(=O)Nc4ccc(N)cc4)cccc2-3)cc1` had an inhibition of 6%. Also, in the experiment with A-431 [2], the GI50 was 1590 nM.

In the case of `Nc1ccc(NC(=O)Nc2cccc3c2C(=O)c2c-3n[nH]c2-c2ccc3c(c2)OCO3)cc1`, the outcome with A-431 [3] was Active. Further, the inhibition in experiment [1] stood at 28%. In the experiment with A-431 [2], this compound gave a GI50 of 62 nM. Further, 380 nM corresponded to half-maximal inhibition in experiment [4] (IC50).

For `COc1ccc(-c2[nH]nc3c2C(=O)c2c(NC(=O)Nc4ccc(O)cc4)cccc2-3)cc1`, the inhibition in experiment [1] worked out at 8%. Also, the GI50 in the experiment on A-431 [2] was greater than 10000 nM.

For `O=C(Nc1ccc(O)cc1)Nc1cccc2c1C(=O)c1c-2n[nH]c1-c1ccc2c(c1)OCO2`, the result with A-431 [3] was Active. This compound registered an inhibition in experiment [1] of 2%. In the experiment with A-431 [2], the GI50 was found to be 56 nM. For the same compound, 700 nM corresponded to half-maximal inhibition in experiment [4] (IC50).

With `Nc1ccc(NC(=O)Nc2cccc3c2C(=O)c2c-3n[nH]c2-c2ccc(O)cc2)cc1`, the inhibition in experiment [1] was 7%. Besides, the GI50 with A-431 [2] is greater than 10000 nM. Also, the IC50 in experiment [4] was determined as 650 nM.

For `Nc1ccc(NC(=O)Nc2cccc3c2C(=O)c2c-3n[nH]c2-c2ccc(O)c(O)c2)cc1`, the inhibition in experiment [1] was 3%. Moreover, growth in the experiment on A-431 [2] was halved (GI50) at 4790 nM.
